Values of other authors as cited in patent US20090320148A1, “OXYLIPINS FROM STEARIDONIC ACID AND GAMMA-LINOLENIC ACID AND METHODS OF MAKING AND USING THE SAME” (MARTEK BIOSCIENCES CORPORATION, priority 2006, published 2009).

How the values were obtained:
[1] = test system: IL-1β
[2] = test system: cell migration; conditions: comparison with the DHA-derived oxylipin

| Compound | secretion of the pro-inflammatory cytokine IL-1β [1] | reduction of IL-1β secretion compared with DHA oxylipin derivative and indomethacin ([1]; comparison with DHA oxylipin derivative and indomethacin) | potency for reduction in IL-1β secretion ([1]; comparison with the DHA oxylipin) | potency for inhibiting cell migration [2] |
| --- | --- | --- | --- | --- |
| 10,17-dihydroxy DPAn-6 | significantly reduced | significantly larger than with that produced by either the DHA oxylipin derivative or the general anti-inflammatory agent, indomethacin | more potent than the DHA oxylipin |  |
| CCCCCC(O)/C=C/C=C\C/C=C\C/C=C\C/C=C\CCC(=O)O (centres unmarked) [17-hydroxy DPAn-6] | significantly reduced |  |  | more potent than the DHA-derived oxylipin |
